# In paper PMC9587990, “Molecular basis for isoform-selective inhibition of presenilin-1 by MRK-560” (Nature Communications, 2022):
# Values joined by “and” are separate entries in the source; they are usually repeats but may differ in a detail not shown here. Identical values can stand only once. Like-named read-outs stand apart in the source and are kept apart here.
# What was measured:
# Notch = test system: Notch; design: method as in PMID 17099072, PMID 16443723; settings: wild-type (WT) mouse model; cited from earlier work
# [1] = target: T1, PS1 TL281-282PI γ-secretase complex (Homo sapiens, UniProt P49768, L282I/T281P); test: in vitro cleavage assay, Aβ40 production by AlphaLISA; assay type: biochemical; settings: for remaining activity at 0.002 µM / remaining activity at 0.01 µM / remaining activity at 0.04 µM / remaining activity at 0.2 µM / remaining activity at 1 µM / remaining activity at 10 µM: 4 h; for remaining activity at 0.002 µM / remaining activity at 0.01 µM / remaining activity at 0.04 µM / remaining activity at 0.2 µM / remaining activity at 1 µM / remaining activity at 10 µM / Caculated Aβ40 production / raw data from α-Lisa reading: PS1TL 281 282PI
# T1 construct: made in house
# Method: (§1) In total we generated six variants, including single and double residue swapping of Thr281/Leu282 in PS1 with Pro287/Ile288 in PS2, respectively. MRK-560 response to the six PS1/PS2 mutant-containing complexes, each purified to homogeneity, was examined in the in vitro cleavage assay (Fig. 4). All proteins used for the activity assay were sub-cloned, expressed and purified as described. Protein concentration was determined using the Bradford method. […] The cleavage reaction was conducted at 37 °C for 4 h. The cleaved products of these substrates were detected using a monoclonal antibody (1:1000 dilution, CW0299, CWBio) against the C-terminal Myc tag. Aβ40 production was detected using the AlphaLISA assay (PerkinElmer) as described. The IC50 values and the inhibition curves were calculated using Prism 8.0. Statistical analysis of Aβ40 was performed using Prism 8 (GraphPad Software, San Diego, CA, USA). IC50 were determined by a four-parameter logistic regression. The statistical details can be found in Figs. 1, 4 and legends. Data are expressed as mean ± SD.
# [2] = target: T2, PS2 I288L γ-secretase complex (Homo sapiens, UniProt P49810, I288L); test: as above; assay type: biochemical; settings: for remaining activity at 0.002 µM / remaining activity at 0.04 µM / remaining activity at 0.2 µM / remaining activity at 1 µM / remaining activity at 10 µM / remaining activity at 20 µM: 4 h
# T2 construct: made in house
# Method: as §1
# [3] = target: T3, PS1 L282I γ-secretase complex (Homo sapiens, UniProt P49768, L282I); test: as above; assay type: biochemical; settings: for remaining activity at 0.002 µM / remaining activity at 0.01 µM / remaining activity at 0.04 µM / remaining activity at 0.2 µM / remaining activity at 1 µM / remaining activity at 10 µM: 4 h; for remaining activity at 0.002 µM / remaining activity at 0.01 µM / remaining activity at 0.04 µM / remaining activity at 0.2 µM / remaining activity at 1 µM / remaining activity at 10 µM / Caculated Aβ40 production / raw data from α-Lisa reading: PS1 L282I
# T3 construct: made in house
# Method: as §1
# [4] = target: T4, PS2 P287T γ-secretase complex (Homo sapiens, UniProt P49810, P287T); test: as above; assay type: biochemical; settings: for remaining activity at 0.002 µM / remaining activity at 0.04 µM / remaining activity at 0.2 µM / remaining activity at 1 µM / remaining activity at 10 µM / remaining activity at 20 µM: 4 h
# T4 construct: made in house
# Method: as §1
# [5] = MRK-560 2 nM, mean of 3 replicates, read-out: Normalized production (control=1), Mean
# [6] = MRK-560 2 nM, replicates, read-out: Normalized production (control=1)
# [7] = MRK-560 10 nM, mean of 3 replicates, read-out: Normalized production (control=1), Mean
# [8] = MRK-560 10 nM, replicates, read-out: Normalized production (control=1)
# [9] = MRK-560 40 nM, mean of 3 replicates, read-out: Normalized production (control=1), Mean
# [10] = MRK-560 40 nM, replicates, read-out: Normalized production (control=1)
# [11] = MRK-560 200 nM, mean of 3 replicates, read-out: Normalized production (control=1), Mean
# [12] = MRK-560 200 nM, replicates, read-out: Normalized production (control=1)
# [13] = MRK-560 1 μM, mean of 3 replicates, read-out: Normalized production (control=1), Mean
# [14] = MRK-560 1 μM, replicates, read-out: Normalized production (control=1)
# [15] = MRK-560 10 μM, mean of 3 replicates, read-out: Normalized production (control=1), Mean
# [16] = MRK-560 10 μM, replicates, read-out: Normalized production (control=1)
# [17] = MRK-560 20 μM, mean of 3 replicates, read-out: Normalized production (control=1), Mean
# [18] = MRK-560 20 μM, replicates, read-out: Normalized production (control=1)
compound,measurement,setting,value
"O=S(=O)(NC1CCC(c2cc(F)ccc2F)(S(=O)(=O)c2ccc(Cl)cc2)CC1)C(F)(F)F (stereo not drawn) [MRK-560, N-[cis-4-[(4-chlorophenyl)sulfonyl]-4-(2,5-difluorophenyl)cyclohexyl]-1,1,1-trifluoromethanesulfonamide]",Notch-related side effect,Notch,does not induce Notch-related side effect
same,IC50,[1],0.195 ± 0.016 µM
same,remaining activity at 0.002 µM,[1]; [5],116%
same,remaining activity at 0.002 µM,[1]; [6],115%
same,remaining activity at 0.01 µM,[1]; [7],112%
same,remaining activity at 0.01 µM,[1]; [8],113%
same,remaining activity at 0.04 µM,[1]; [9],105%
same,remaining activity at 0.04 µM,[1]; [10],103%
same,remaining activity at 0.2 µM,[1]; [11],57.2%
same,remaining activity at 0.2 µM,[1]; [12],59.1%
same,remaining activity at 1 µM,[1]; [13],11.1%
same,remaining activity at 1 µM,[1]; [14],11%
same,remaining activity at 10 µM,[1]; [15],1.33%
same,remaining activity at 10 µM,[1]; [16],1.43%
same,Caculated Aβ40 production,"[1]; MRK-560 2 nM, replicates",380.9708 and 384.7930 and 381.0949
same,raw data from α-Lisa reading,"[1]; MRK-560 2 nM, replicates",58097 and 58620 and 58114
same,Caculated Aβ40 production,"[1]; MRK-560 10 nM, replicates",372.0557 and 371.8958 and 369.4343
same,raw data from α-Lisa reading,"[1]; MRK-560 10 nM, replicates",56873 and 56851 and 56512
same,Caculated Aβ40 production,"[1]; MRK-560 40 nM, replicates",339.5167 and 363.4357 and 337.7821
same,raw data from α-Lisa reading,"[1]; MRK-560 40 nM, replicates",52356 and 55684 and 52113
same,Caculated Aβ40 production,"[1]; MRK-560 200 nM, replicates",195.2943 and 180.8050 and 191.3579
same,raw data from α-Lisa reading,"[1]; MRK-560 200 nM, replicates",31350 and 29146 and 30753
same,Caculated Aβ40 production,"[1]; MRK-560 1 μM, replicates",36.3190 and 36.2828 and 37.2900
same,raw data from α-Lisa reading,"[1]; MRK-560 1 μM, replicates",6150 and 6144 and 6311
same,Caculated Aβ40 production,"[1]; MRK-560 10 μM, replicates",4.7413 and 3.9425 and 4.5046
same,raw data from α-Lisa reading,"[1]; MRK-560 10 μM, replicates",864 and 729 and 824
same,remaining activity at 0.002 µM,[2]; [5],110%
same,remaining activity at 0.002 µM,[2]; [6],110%
same,remaining activity at 0.04 µM,[2]; [9],65.9%
same,remaining activity at 0.04 µM,[2]; [10],68%
same,remaining activity at 0.2 µM,[2]; [11],17.7%
same,remaining activity at 0.2 µM,[2]; [12],17.9%
same,remaining activity at 1 µM,[2]; [13],5.3%
same,remaining activity at 1 µM,[2]; [14],5.2%
same,remaining activity at 10 µM,[2]; [15],1.39%
same,remaining activity at 10 µM,[2]; [16],1.35%
same,remaining activity at 20 µM,[2]; [17],1.69%
same,remaining activity at 20 µM,[2]; [18],1.61%
same,Caculated Aβ40 production,"[2]; MRK-560 2 nM, replicates",534.8273 and 537.0982 and 529.5442
same,raw data from α-Lisa reading,"[2]; MRK-560 2 nM, replicates",78346 and 78633 and 77677
same,Caculated Aβ40 production,"[2]; MRK-560 40 nM, replicates",330.6964 and 306.7347 and 323.3048
same,raw data from α-Lisa reading,"[2]; MRK-560 40 nM, replicates",51118 and 47725 and 50076
same,Caculated Aβ40 production,"[2]; MRK-560 200 nM, replicates",87.0033 and 86.1156 and 85.5883
same,raw data from α-Lisa reading,"[2]; MRK-560 200 nM, replicates",14434 and 14291 and 14206
same,Caculated Aβ40 production,"[2]; MRK-560 1 μM, replicates",25.2908 and 26.2376 and 25.7761
same,raw data from α-Lisa reading,"[2]; MRK-560 1 μM, replicates",4315 and 4473 and 4396
same,Caculated Aβ40 production,"[2]; MRK-560 10 μM, replicates",6.5772 and 6.8972 and 6.7964
same,raw data from α-Lisa reading,"[2]; MRK-560 10 μM, replicates",1174 and 1228 and 1211
same,Caculated Aβ40 production,"[2]; MRK-560 20 μM, replicates",7.8160 and 7.8990 and 8.9905
same,raw data from α-Lisa reading,"[2]; MRK-560 20 μM, replicates",1383 and 1397 and 1581
same,IC50,[2]; mean ± SD,0.057 ± 0.01 µM
same,IC50,[3],0.09 ± 0.01 µM
same,remaining activity at 0.002 µM,[3]; [5],111%
same,remaining activity at 0.002 µM,[3]; [6],110%
same,remaining activity at 0.01 µM,[3]; [7],108%
same,remaining activity at 0.01 µM,[3]; [8],104%
same,remaining activity at 0.04 µM,[3]; [9],83.5%
same,remaining activity at 0.04 µM,[3]; [10],83.1%
same,remaining activity at 0.2 µM,[3]; [11],28.8%
same,remaining activity at 0.2 µM,[3]; [12],28.2%
same,remaining activity at 1 µM,[3]; [13],3.17%
same,remaining activity at 1 µM,[3]; [14],3.28%
same,remaining activity at 10 µM,[3]; [15],0.83%
same,remaining activity at 10 µM,[3]; [16],0.9%
same,Caculated Aβ40 production,"[3]; MRK-560 2 nM, replicates",281.9088 and 286.0465 and 285.6579
same,raw data from α-Lisa reading,"[3]; MRK-560 2 nM, replicates",44163 and 44760 and 44704
same,Caculated Aβ40 production,"[3]; MRK-560 10 nM, replicates",268.0187 and 289.2618 and 277.4973
same,raw data from α-Lisa reading,"[3]; MRK-560 10 nM, replicates",42149 and 45223 and 43525
same,Caculated Aβ40 production,"[3]; MRK-560 40 nM, replicates",213.5518 and 216.6350 and 213.7318
same,raw data from α-Lisa reading,"[3]; MRK-560 40 nM, replicates",34102 and 34564 and 34129
same,Caculated Aβ40 production,"[3]; MRK-560 200 nM, replicates",72.5045 and 76.2274 and 73.8042
same,raw data from α-Lisa reading,"[3]; MRK-560 200 nM, replicates",12089 and 12693 and 12300
same,Caculated Aβ40 production,"[3]; MRK-560 1 μM, replicates",8.4328 and 8.0651 and 7.9702
same,raw data from α-Lisa reading,"[3]; MRK-560 1 μM, replicates",1487 and 1425 and 1409
same,Caculated Aβ40 production,"[3]; MRK-560 10 μM, replicates",2.3045 and 1.9913 and 2.1331
same,raw data from α-Lisa reading,"[3]; MRK-560 10 μM, replicates",452 and 399 and 423
same,remaining activity at 0.002 µM,[4]; [5],86.9%
same,remaining activity at 0.002 µM,[4]; [6],87.8%
same,remaining activity at 0.04 µM,[4]; [9],68.9%
same,remaining activity at 0.04 µM,[4]; [10],70.8%
same,remaining activity at 0.2 µM,[4]; [11],33.9%
same,remaining activity at 0.2 µM,[4]; [12],34.2%
same,remaining activity at 1 µM,[4]; [13],8.68%
same,remaining activity at 1 µM,[4]; [14],8.69%
same,remaining activity at 10 µM,[4]; [15],1.62%
same,remaining activity at 10 µM,[4]; [16],1.63%
same,remaining activity at 20 µM,[4]; [17],1.25%
same,remaining activity at 20 µM,[4]; [18],1.14%
same,Caculated Aβ40 production,"[4]; MRK-560 2 nM, replicates",520.0011 and 533.1358 and 528.5350
same,raw data from α-Lisa reading,"[4]; MRK-560 2 nM, replicates",78132 and 77549 and 76464
same,Caculated Aβ40 production,"[4]; MRK-560 40 nM, replicates",419.8422 and 429.7041 and 404.1611
same,raw data from α-Lisa reading,"[4]; MRK-560 40 nM, replicates",64687 and 61254 and 63367
same,Caculated Aβ40 production,"[4]; MRK-560 200 nM, replicates",203.3520 and 207.5605 and 206.0857
same,raw data from α-Lisa reading,"[4]; MRK-560 200 nM, replicates",33202 and 32980 and 32568
same,Caculated Aβ40 production,"[4]; MRK-560 1 μM, replicates",52.1767 and 52.7609 and 53.0714
same,raw data from α-Lisa reading,"[4]; MRK-560 1 μM, replicates",8864 and 8915 and 8768
same,Caculated Aβ40 production,"[4]; MRK-560 10 μM, replicates",9.7739 and 9.8808 and 9.9223
same,raw data from α-Lisa reading,"[4]; MRK-560 10 μM, replicates",1731 and 1738 and 1713
same,Caculated Aβ40 production,"[4]; MRK-560 20 μM, replicates",7.8338 and 6.8972 and 8.0769
same,raw data from α-Lisa reading,"[4]; MRK-560 20 μM, replicates",1228 and 1427 and 1386
same,IC50,[4]; mean ± SD,0.106 ± 0.027 µM
